According to publication PMC6260619, “Selective Cytotoxicity of Goniothalamin against Hepatoblastoma HepG2 Cells” (Molecules, 2011):

System: HepG2 cells
Experiment: Trypan blue dye exclusion viable cell count, HepG2
Assay type: cell-based, human
Description: As supported by MTT and LDH results, goniothalamin inhibited cell proliferation towards HepG2 in a time- and dose-dependent manner as shown in the BrdU incorporation ELISA method. The effects of goniothalamin on HepG2 and Chang cell growth were also analyzed by viable cell counts using trypan blue dye exclusion assay for 24, 48 and 72 hours after treatment with different doses of goniothalamin. […] The ratio between viable cell numbers in goniothalamin-treated cells and control cells was reported as the Viablity Index (VI, Figure 5A and Figure 5B).
A half mL aliquot of cell suspension (obtained from treated and non-treated HepG2 and Chang cells), was mixed with 0.5 mL of 0.4% trypan blue dye and left for 5 min at room temperature). The cells were counted using the hemacytometer and the percentage of dead cells was determined.

With `O=C1C=CC[C@H](/C=C/c2ccccc2)O1` [Goniothalamin, 5-hydroxy-7-phenylhepta-2,6-dienoic acid lactone] as the molecule, how does the “viability (cell count, trypan blue)” value (HepG2, 2.3 µM) read?
The value was “significantly inhibited”.

And the “Viability Index” value (HepG2, at IC50, 72 hours)?
The value was 52 ± 1.73%.

And the inhibition at 4.6 µM (Homo sapiens, HepG2, 4.6 µM, 72 hours, read-out: inhibition of cell growth (trypan blue))?
The inhibition at 4.6 µM was 52%.

And the inhibition at 8.3 µM (Homo sapiens, HepG2, 8.3 µM, 48 hours, read-out: inhibition of cell growth (trypan blue))?
Its inhibition at 8.3 µM is 64%.

And the inhibition at 9.2 µM (Homo sapiens, HepG2, 9.2 µM, 24 hours, read-out: inhibition of cell growth (trypan blue))?
The inhibition at 9.2 µM was 79%.
